Laboratory results: patent US12601000B2, “Method for the hydroxylation of steroids” (ANNIKKI GMBH, priority 2020, dated 2026)
In brackets after ≈: the same amount, converted by molar mass. Like-named read-outs stand apart in the source and are kept apart here.

Experiments:
[1] = Solubility limits of LCA and UDCA in organic solvents; type: physicochemical; details: organic solvent, organic solvent or mixture, thermodynamic from solid, read-out: solubility limit
Protocol: The organic solvent was added in increments of 100 μL, and the mixture was treated by shaking in a vortex shaker and optionally in an ultrasonic bath. It was visually assessed as to whether a clear solution was present.

[2] = system: Streptomyces hygroscopicus subsp. hygroscopicus (DSM-40578); test: Test of bacterial strains for 7-hydroxylation of deoxycholic acid; type: cell-based; details: deoxycholic acid 0.5 mM, cultured up to 72 h, HPLC and GC/MS
Source text: (§1) The following bacterial strains were obtained from the German Strain Collection of Microorganisms and Cell Cultures (DSMZ [Deutsche Stammsammlung für Mikroorganismen und Zellkulturen]): Saccharothrix longispora (DSM-43749), Catellatospora citrae (DSM-44097), Streptomyces hygroscopicus subsp. hygroscopicus (DSM-40578) and Asanoa ferruginea (DSM-44099). The strains were cultivated under standard conditions as recommended by DSMZ. […] After a centrifugation step, supernatants of the cultures were extracted with ethyl acetate and analyzed by HPLC and GC/MS.

[3] = system: Catellatospora citrae (DSM-44097); test: as above; type: cell-based; details: deoxycholic acid 0.5 mM, cultured up to 72 h, HPLC and GC/MS
Source text: as §1

[4] = system: Asanoa ferruginea (DSM-44099); test: as above; type: cell-based; details: deoxycholic acid 0.5 mM, cultured up to 72 h, HPLC and GC/MS
Source text: as §1

[5] = system: Saccharothrix longispora (DSM-43749); test: as above; type: cell-based; details: deoxycholic acid 0.5 mM, cultured up to 72 h, HPLC and GC/MS
Source text: as §1

## C[C@H](CCC(=O)O)[C@H]1CC[C@H]2[C@@H]3[C@@H](O)C[C@@H]4C[C@H](O)CC[C@]4(C)[C@H]3CC[C@]12C [UDCA, ursodeoxycholic acid]
[1]; 2-butanol
  solubility: 53 mg/mL (≈ 135 mM)
[1]; 2-butanone
  solubility: 10 mg/mL (≈ 25.5 mM)
[1]; CH2Cl2
  solubility: 1.1 mg/mL (≈ 2.8 mM)
[1]; CHCl3/phenol
  solubility: 21.3 mg/mL (≈ 54.3 mM)
[1]; CHCl3
  solubility: 2.9 mg/mL (≈ 7.39 mM)
[1]; DMA
  solubility: > 500 mg/mL
[1]; DMF
  solubility: > 500 mg/mL
[1]; DMSO
  solubility: > 500 mg/mL
[1]; Et2O
  solubility: 2 mg/mL (≈ 5.09 mM)
[1]; Me—THF
  solubility: 63.4 mg/mL (≈ 161 mM)
[1]; THF
  solubility: 259 mg/mL (≈ 660 mM)
[1]; acetone
  solubility: 8.8 mg/mL (≈ 22.4 mM)
[1]; cyclohexane
  solubility: < 0.7 mg/mL
[1]; dioxane
  solubility: 92.6 mg/mL (≈ 236 mM)
[1]; ethanol
  solubility: 54.5 mg/mL (≈ 139 mM)
[1]; ethyl acetate (EtOAc)
  solubility: 2.9 mg/mL (≈ 7.39 mM)
[1]; ethylene glycol
  solubility: 16.6 mg/mL (≈ 42.3 mM)
[1]; hexane/EtOAc + 0.01% trifluoroacetic acid (TFA)
  solubility: < 0.8 mg/mL
[1]; hexane/IPA 7:3 + 0.02% TFA
  solubility: 12 mg/mL
[1]; hexane/IPA 8:2 + 0.01% TFA
  solubility: 4 mg/mL
[1]; i Pr2O
  solubility: < 0.5 mg/mL
[1]; isopropanol (IPA)
  solubility: 47.5 mg/mL (≈ 121 mM)
[1]; methanol
  solubility: > 100 mg/mL
[1]; methyl isobutyl alcohol (MIBA)
  solubility: 35.7 mg/mL (≈ 90.9 mM)
[1]; methyl isobutyl ketone (MIBK)
  solubility: 4.4 mg/mL (≈ 11.2 mM)
[1]; toluene
  solubility: < 1 mg/mL

## C[C@H](CCC(=O)O)[C@H]1CC[C@H]2[C@@H]3CC[C@@H]4C[C@H](O)CC[C@]4(C)[C@H]3C[C@H](O)[C@]12C [deoxycholic acid, 3α,12α-dihydroxy-5β-cholanic acid]
[2]
  7-hydroxylated product of deoxycholic acid in culture supernatant: a peak was noted the retention time of which corresponds to that of ursocholic acid
[3]
  7-hydroxylated product of deoxycholic acid in culture supernatant: no indication of 7-hydroxylated products
[4]
  7-hydroxylated product of deoxycholic acid in culture supernatant: no indication of 7-hydroxylated products
[5]
  7-hydroxylated product of deoxycholic acid in culture supernatant: no indication of 7-hydroxylated products
